Series [1] concerns ovalbumin specific IgE. The series can be described thus: OVA induced IgE in mice. The class given is in vivo, mouse. To be noted: serum day 15, 10 mg/kg intraperitoneally once a day from day 6 to day 14, vehicle 150.8. As for the experimental part: Table 10 summarizes effects of 3-(4-pyridinylamino)-1H-indole-2-carboxylic acid on OVA induced IgE in mice. Female mice (5-8 week age, Balb/c, Charles River) were used in this study. Ovalbumin (Sigma) was adsorbed to Aluminum Hydroxide Adsorptive Gel, Inter, and injected 10 μg/0.2 ml/mouse intraperitoneally on experimental day 0 and day 7. Dexamethasone (Sigma) and 3-(4-pyridinylamino)-1H-indole-2-carboxylic acid (Example 28) were in 10% HPCD (Hydroxypropyl-β-Cyclodextrin, Aldrich). Dexamethasone (10 mg/kg), 3-(4-pyridinylamino)-1H-indole-2-carboxylic acid (Example 28) (3 and 10 mg/kg) and 10% HPCD (0.2 ml/mouse) are injected into mice intraperitoneally once a day from day 6 to day 14. They were bled at day 15. Serum ovalbumin specific IgE levels were determined by standard ELISA using a goat anti-mouse IgE antibody labeled with alkaline phosphatase. The anti-OVA titers were determined by malting serial dilutions of the test sera and comparing with vehicle control.

Series [2] relates to Swiss 3T3 fibroblasts. The series can be described thus: In vitro cytotoxicity assay on contact inhibited 3T3 fibroblasts (MTS). The class given is cell-based. As for the experimental part: Other toxicity assays may be used.
Any compound killing 3T3 fibroblast cells was omitted from further studies.
Contact inhibited Swiss 3T3 fibroblasts are purchased from ATCC.
All compound dilutions are assayed in triplicate. […] Cells are returned to the incubator for 2 days.
Media is added to blank wells for background calculations.
Note that starting concentration of CsA was 1 μM.

Series [3] has as its system IL-4. The series can be described thus: Human primary Th2 cells, IL-4 by ELISA. The settings on record: for IL-4 (% control) mean: human Th2 cells, anti-CD3/anti-CD28, 48 hr; for IC50: human primary Th2 cells activated with anti-CD3 and anti-CD28 (Table 5). The class given is cell-based. The procedure:
Briefly, CD4^+CD45RA^+ T cells, isolated from donor peripheral blood mononuclear cells of healthy donors, are educated in the presence of anti-CD3/CD28 antibodies and various growth factors to obtain either a Th1-like or Th2-like phenotypes as determined by the known cytokine profiles of these two cell types.
(§1) Peripheral blood mononuclear cells (PBMC) are prepared from human blood by Ficoll-Hypacque (Pharmacia). The cells are washed two times in Hanks balanced salt solution (HBSS) and counted.
Naïve T cells (CD4^+/CD45RA) are prepared by negative selection method using following antibodies and Dynabeads: anti-CD8, anti-HLA-DR, (where HLA means human leucocyte antigen) anti-CD14, anti-CD16, anti-CD19, anti-CD45RO antibodies (all from R&D Systems, 1-2 μg/ml) are added to the cells, and the cells are kept on ice for 30 min. The cells are washed two times in HBSS, and goat anti-mouse Ig-beads, (bead:target ratio, 5:1) are added. The cells and beads are slowly rotated at 4° C. for 20 min. (following the protocol supplied from Dynal). The supernatant is removed and fresh goat anti-mouse Ig-beads are added to the supernatant, which is slowly rotated at 4° C. for 20 min. The cells are counted and phenotypically characterized by flow cytometric analysis.
Generation of Th1/Th2 cells: Twenty four well plates are coated with 300 μL anti-CD3 Ab (10 μg/ml, in PBS 1-2 h at 37° C. or overnight at 4° C.), and washed two times with PBS. […]/CD45RA^+ cells at a density of 10^6/ml in RPMI, is prepared and added to RPMI medium containing 10% Hyclone serum/glutamine and 1-2 μg/ml anti-CD28 Ab. The cells are split in two aliquots. For Th1 cells: anti-IL-4 Ab (1-2 μg/ml), IFN-γ (1 μg/ml, or 5000 units/ml) are added to the wells. For Th2 cells: IL-4 (100-200 ng/ml), anti-IFN-γ neutralizing Ab (1-2 μg/ml), anti-IL-12 neutralizing Ab (1-2 μg/ml) are added into the wells. The cells are incubated for 2-3 days at 37° C. The cells are transferred to fresh wells and grown in 200 units/ml IL-2 for 2 weeks by feeding them every other day with IL-2 containing medium and splitting the cultures 1:2 or 1:3 as needed. The degree of polarization is determined by intracellular staining of cells with anti-IFN-γ and anti-IL-4 antibodies from Pharmingen, and using flow cytometry from Becton Dickinson (BD), according to manufacturers description. The cells are stimulated with PHA and alloantigens at day 14 and 28 as described below. Eight days after the second allostimulation the cells can be used for compound screening or frozen for future use. For compound testing, large quantities of Th1 and Th2 cells derived from a given donor (NYTh1 and NYTh2) were expanded and frozen as aliquots in liquid nitrogen. The cells are thawed and cultured as and when needed. The thawed cells are stimulated with alloantigen/PHA combination. The cells are used for compound screening after 8-10 days in culture.
Re-stimulation by allogeneic cells: Human PBMCs, to be used as alloantigens, are isolated from freshly drawn blood by Ficoll separation. Cells are resuspended in medium containing 50 μg/ml mitomycin C and incubated for 40 minutes at 37° C. and then washed extensively to remove all of the Mitomycin C. Cells are counted and diluted to a final concentration of 2×10^6/ml in medium containing 10 μg/ml PHA and 200 units/ml IL-2.
Background: In an ELISA, binding on a coated surface is turned into a signal by an enzyme label.

Series [4] relates to sheep allergic to Ascaris suum. The series can be described thus: Sheep asthma model (Ascaris suum antigen challenge). It counts as in vivo. The procedure:
Briefly, transpulmonary pressure, pulmonary resistance (RL), specific lung resistance (SRL airway hyperreactivity, airway responsiveness, are determined.
Venous blood samples (˜5 ml) are obtained from a peripheral leg vein or the jugular vein for pharmacokinetic data. Measurement of Airway Mechanics: The unsedated sheep are restrained in a cart in the prone position with their heads immobilized. After topical anesthesia of the nasal passages with 2% lidocaine solution, a balloon catheter is advanced through one nostril into the lower esophagus. The animals are […] with a cuffed endotracheal tube through the other nostril using a flexible fiberoptic bronchoscope as a guide. (The cuff of the endotracheal tube is inflated only for the measurement of airway mechanics and during aerosol challenges to prevent undue discomfort. This procedure has no effect on airway mechanics). Pleural pressure is estimated with the esophageal balloon catheter (filled with one ml of air) which is positioned 5-10 cm from the gastroesophageal junction. In this position the end expiratory pleural pressure ranges between −2 and −5 cm H20. Once the balloon is placed, it is secured so that it remains in position for the duration of the experiment. Lateral pressure in the trachea is measured with a sidehole catheter (inner dimension, 2.5 mm) advanced through and positioned distal to the tip of the endotracheal tube. Transpulmonary pressure, the difference between tracheal and pleural pressure, is measured with a differential pressure transducer catheter system. […] The signals of flow and transpulmonary pressure is recorded on an oscilloscope recorder which is linked to a computer for on-line calculation of RL from transpulmonary pressure, respiratory volume (obtained by digital integration) and flow. […] Immediately after the measurement of RL, thoracic gas volume (Vtg) is measured in a constant volume body plethysmograph to obtain specific lung resistance (SRL=RL·Vtg) in L×cm H20/LPS. […]

Series [5] concerns IFN-γ. The series can be described thus: Human primary Th2 cells, IFN-γ by ELISA. It counts as cell-based. The settings on record: human primary Th2 cells activated with anti-CD3 and anti-CD28 (Table 5).
Excerpt: (§2) The methods described herein permit polarization of primary human peripheral blood cells into Th1 and Th2 cells and generation of sufficiently large quantities of Th1 and Th2 cells, e.g., billions of cells, to allow drug screening. Briefly, CD4^+CD45RA^+ T cells, isolated from donor peripheral blood mononuclear cells of healthy donors, are educated in the presence of anti-CD3/CD28 antibodies and various growth factors to obtain either a Th1-like or Th2-like phenotypes as determined by the known cytokine profiles of these two cell types. Primary human Th1 cells secreted IFN-γ and IL-2 cytokines while primary human Th2 cells secreted IL-4, IL-5, IL-13 and basal amounts of IFN-γ that are measurable by enzyme linked immuno absorption assay (ELISA).
as §1
(§3) Naïve T cells (CD4^+/CD45RA) are prepared by negative selection method using following antibodies and Dynabeads: anti-CD8, anti-HLA-DR, (where HLA means human leucocyte antigen) anti-CD14, anti-CD16, anti-CD19, anti-CD45RO antibodies (all from R&D Systems, 1-2 μg/ml) are added to the cells, and the cells are kept on ice for 30 min. […] The cells are counted and phenotypically characterized by flow cytometric analysis. […]

Series [6] deals with IL-13. The series can be described thus: Human primary Th2 cells, IL-13 by ELISA. It counts as cell-based. To be noted: human primary Th2 cells activated with anti-CD3 and anti-CD28 (Table 5).
Excerpt: as §2, §1, §3

Series [7] deals with Human Th2 cells. The series can be described thus: Human primary Th2 cells, proliferation (MTS viability test). The settings on record: human primary Th2 cells activated with anti-CD3 and anti-CD28 (Table 5); read-out: Prolif. IC50. It counts as cell-based.
Excerpt: as §2, §1, §3
On the technique in general: Tetrazolium dyes change colour on reduction, which living cells bring about.

For series [8], the system named is IL-5. The series can be described thus: Human primary Th2 cells, IL-5 by ELISA. The class given is cell-based. To be noted: human primary Th2 cells activated with anti-CD3 and anti-CD28 (Table 5).
Excerpt: as §2, §1, §3

Where [9] appears, read: 3 mg/kg aerosol 30 min before antigen challenge, 2 sheep per group (FIG. 3A).

Regarding `C[C@@H]1C[C@H]2[C@@H]3CCC4=CC(=O)C=C[C@]4(C)[C@@]3(F)[C@@H](O)C[C@]2(C)[C@@]1(O)C(=O)CO` [Dexamethasone], the “Anti-OVA IgE” value in series [1] came out at 27.4.

For the compound `O=C(O)c1[nH]c2ccccc2c1Nc1ccncc1` [Example 28, 3-(4-Pyridinylamino)-1H-indole-2-carboxylic acid], the “toxic effects on quiescent 3T3 cells (in words)” value in series [2] was “no toxic effects”. Moreover, the “IL-4 (% control) mean” value was 102.15 % control in series [3] (0.01 μM); 65.30 % control in series [3] (0.03 μM); 59.75 % control in series [3] (0.1 μM); 45.00 % control in series [3] (0.3 μM); 42.55 % control in series [3] (1 μM); 36.40 % control in series [3] (3 μM). For the same compound, the “IL-4 (% control) mean” value in series [3] (10 μM) amounted to 30.80 % control. In addition, the “antigen-induced early bronchial response: acute increase in specific lung resistance (SRL)” value in series [4] (setting [9]) was “did not affect”. Besides, in series [4] (setting [9]), the “antigen-induced late bronchial response (SRL)” value is reported as “blocked the late response”. Also, in series [4] (3 mg/kg, 2 sheep (FIG. 3B)), the “post challenge airway responsiveness (decrease of PC400 after antigen challenge)” value is reported as “prevented this effect”.

The IC50 is the concentration needed to halve the response being measured. For the compound `O=C(O)c1[nH]c2cc(Cl)ccc2c1NC(=O)C1CCNCC1` [Example 82, 3-((4-Piperidineacyl)amino)-6-chloro-1H-indole-2-carboxylic acid], the IC50 in series [5] was greater than 10 µM; in series [6] it was greater than 10 µM; in series [7] it was greater than 10 µM; in series [3], 0.15 µM; in series [8] it was greater than 10 µM.

As for `CCOC(=O)c1[nH]c2cc(Cl)cc(Cl)c2c1N(C)C(=O)c1ccccc1` [Example 83, 3-((Benzoyl)methylamino)-4,6-dichloro-1H-indole-2-carboxylic acid ethyl ester], the IC50 in series [5] is greater than 10 µM; in series [6], greater than 10 µM; in series [7] it was greater than 10 µM; in series [3], 1 µM; in series [8] it was greater than 10 µM.

(Values after patent US20080132481A1, “INTERLEUKIN-4 GENE EXPRESSION INHIBITORS” (AVENTIS PHARMACEUTICALS INC., priority 2002, published 2008).)
